Among the data in patent US20110269763A1, “CRTH2 receptor ligands for medicinal uses” (7TM Pharma A/S, priority 2004, published 2011) are IC50 values, retold here.

In test [1] the target is T1, human CRTH2 (Homo sapiens, UniProt Q9Y5Y4, V204A).
T1 sequence (Q9Y5Y4 1-395 V204A): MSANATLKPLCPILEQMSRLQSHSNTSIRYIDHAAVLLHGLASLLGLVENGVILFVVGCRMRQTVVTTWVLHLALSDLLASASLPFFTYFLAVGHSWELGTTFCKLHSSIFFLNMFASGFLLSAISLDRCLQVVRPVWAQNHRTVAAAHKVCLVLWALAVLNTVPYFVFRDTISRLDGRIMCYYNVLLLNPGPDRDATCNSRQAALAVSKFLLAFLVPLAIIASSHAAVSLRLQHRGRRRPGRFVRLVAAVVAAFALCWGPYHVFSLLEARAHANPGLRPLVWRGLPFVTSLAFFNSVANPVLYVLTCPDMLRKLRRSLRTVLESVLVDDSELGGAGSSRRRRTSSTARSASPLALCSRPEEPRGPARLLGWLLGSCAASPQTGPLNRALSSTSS
The experiment in a line: Functional antagonist BRET assay on HEK293 cells stably expressing human CRTH2-Rluc and GFP2-β-arr2. The class given is cell-based. Further details: expressed in transfected cells. As to conditions: read-out: Antag. IC50. A digest of the protocol:
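Cells (2×10^6/mL in D-PBS with glucose) were preincubated 15 min with antagonist at 1% DMSO, then agonist and DeepBlueC were co-injected. Emission at 400 and 515 nm was read 5 s later, and the mBRET ratio (515/400 nm) was used to derive IC50 from concentration–response curves.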
(In general: Bioluminescence resonance energy transfer reports proximity on the nanometre scale.)

Test [2] concerns the target T1, human CRTH2. The experiment in a line: Receptor binding assay: [3H]PGD2 competition binding on whole COS-7 cells transiently transfected with CRTH2 (also stable HEK293 cells). Further details: expressed in transfected cells; host or cells: COS-7 (transient, calcium phosphate). The method, boiled down: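 Whole COS-7 cells transiently transfected with human CRTH2 (calcium phosphate), or stable HEK293 cells, competed against 0.1 nM [3H]PGD2 in HBSS/10 mM HEPES with 1% DMSO, 3 h at 4 °C. Nonspecific binding with 10 μM PGD2; scintillation counting, duplicates. IC50 from curve fitting.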

Where [3] appears, read: functional antagonist assay, Table 3.
[4] abbreviates: receptor binding assay, Table 3.
The mark [5] stands for this setting: BRET, antagonist incubated 15 minutes prior to agonist.
Where [6] appears, read: competition with 0.1 nM [3H]PGD2, whole cells, 3 h at 4° C.

`COc1cccc(Cc2noc(-c3cc(Br)ccc3OCC(=O)O)n2)c1` [D125, {4-Bromo-2-[3-(3-methoxybenzyl)-[1,2,4]oxadiazol-5-yl]phenoxy}acetic acid]: the concentration for half-maximal inhibition (IC50) (in general, the concentration at which inhibition is half-maximal) at human CRTH2 [1] (setting [3]) is greater than 5000 nM; on human CRTH2 [2] (setting [4]) it was less than 500 nM.

Turning to `O=C(O)COc1ccc(Br)cc1-c1nc(Cc2ccc(Cl)cc2Cl)no1` [D122, {4-Bromo-2-[3-(2,4-dichloro-benzyl)-[1,2,4]oxadiazol-5-yl]-phenoxy}-acetic acid], the half-inhibitory concentration (IC50) on human CRTH2 [1] (setting [3]) and on human CRTH2 [2] (setting [4]) was less than 500 nM in each case.

With `O=C(O)COc1ccc(Br)cc1-c1nc(Cc2ccc(F)cc2)no1` [D116, {4-Bromo-2-[3-(4-fluoro-benzyl)-[1,2,4]oxadiazol-5-yl]-phenoxy}-acetic acid], the IC50 on human CRTH2 [1] (setting [3]) and at human CRTH2 [2] (setting [4]) was less than 500 nM in each case.

For the compound `CCc1cc(Br)ccc1-n1cc(C(=O)c2cc(Br)ccc2OC(C)C(=O)O)cn1` (centres unmarked) [D46, 2-{4-Bromo-2-[1-(4-bromo-2-ethylphenyl)-1H-pyrazole-4-carbonyl]phenoxy}propionic acid], the IC50 on human CRTH2 [1] (setting [5]) and at human CRTH2 [2] (setting [6]) was less than 500 nM in each case.

Turning to `O=C(O)COc1ccc(Cl)cc1C(=O)c1cnn(-c2ccccc2)c1` [D10, [4-Chloro-2-(1-phenyl-1H-pyrazole-4-carbonyl)phenoxy]acetic acid], the IC50 on human CRTH2 [1] (setting [5]) was 500 to 5000 nM; on human CRTH2 [2] (setting [6]), less than 500 nM.

Regarding `COc1ccc(Cc2noc(-c3cc(Br)ccc3OCC(=O)O)n2)cc1OC` [D124, {4-Bromo-2-[3-(3,4-dimethoxybenzyl)-[1,2,4]oxadiazol-5-yl]phenoxy}-acetic acid], the 50% inhibitory concentration (IC50) at human CRTH2 [1] (setting [3]) and at human CRTH2 [2] (setting [4]) was less than 500 nM each time.

In the case of `CC(Oc1ccc(Br)cc1C(=O)c1cnn(-c2ccccc2)c1)C(=O)O` (racemic) [D37, 2-[4-Bromo-2-(1-phenyl-1H-pyrazole-4-carbonyl)phenoxy]propionic acid], the half-maximal inhibitory concentration (IC50) at human CRTH2 [1] (setting [5]) and at human CRTH2 [2] (setting [6]) was less than 500 nM throughout.

Take “{4-Bromo-2-[1-(4-bromo-2-chlorophenyl)-1H-pyrazole-4-carbonyl]phenoxy}acetic acid [D67]”: the half-maximal inhibitory concentration (IC50) on human CRTH2 [1] (setting [5]) and at human CRTH2 [2] (setting [6]) was less than 500 nM throughout.

`CC(Oc1ccc(Br)cc1C(=O)c1cnn(-c2ccc(Br)cc2Br)c1)C(=O)O` (centres unmarked) [D69, 2-{4-Bromo-2-[1-(2,4-dibromophenyl)-1H-pyrazole-4-carbonyl]phenoxy}propionic acid]: the IC50 on human CRTH2 [1] (setting [5]) and at human CRTH2 [2] (setting [6]) was less than 500 nM each time.

As to `O=C(O)COc1ccc(Br)cc1C(=O)c1cnn(-c2ccc(Br)cc2Br)c1` [D33, 4-Bromo-2-[1-(2,4-dibromophenyl)-1H-pyrazole-4-carbonyl]phenoxyacetic acid], the concentration for half-maximal inhibition (IC50) at human CRTH2 [1] (setting [5]) and at human CRTH2 [2] (setting [6]) was less than 500 nM throughout.

As to `O=C(O)COc1ccc(Br)cc1C=NNc1cccc2cccnc12` [D150], the IC50 on human CRTH2 [1] (setting [5]) is greater than 5000 nM; on human CRTH2 [2] (setting [6]), less than 500 nM.

Turning to `O=C(O)COc1ccc(Br)cc1-c1coc(Cc2c(Cl)cccc2Cl)n1` [D91, {4-Bromo-2-[2-(2,6-dichlorobenzyl)oxazol-4-yl]phenoxy}acetic acid], the 50% inhibitory concentration (IC50) on human CRTH2 [1] (setting [5]) and on human CRTH2 [2] (setting [6]) was less than 500 nM throughout.

With `O=C(O)COc1ccc(Br)cc1C(=O)c1cnn(-c2ccc(C(F)(F)F)cc2)c1` [D81, {4-Bromo-2-[1-(4-trifluoromethylphenyl)-1H-pyrazole-4-carbonyl]phenoxy}acetic acid], the IC50 at human CRTH2 [1] (setting [5]) and at human CRTH2 [2] (setting [6]) was less than 500 nM throughout.

With `CC(Oc1ccc(Br)cc1C(=O)c1cnn(-c2ccccc2Oc2ccccc2)c1)C(=O)O` (centres unmarked) [D47, 2-{4-Bromo-2-[1-(2-phenoxyphenyl)-1H-pyrazole-4-carbonyl]phenoxy}propionic acid], the 50% inhibitory concentration (IC50) on human CRTH2 [1] (setting [5]) and on human CRTH2 [2] (setting [6]) was less than 500 nM throughout.

For `O=C(O)COc1ccc([N+](=O)[O-])cc1C(=O)c1cnn(-c2ccccc2Br)c1` [D28, 4-Nitro-2-[1-(2-bromophenyl)-1H-pyrazole-4-carbonyl]phenoxyacetic acid], the IC50 at human CRTH2 [1] (setting [5]) and at human CRTH2 [2] (setting [6]) was less than 500 nM in each case.

Regarding `O=C(O)COc1ccccc1C=NNC(=O)CSc1nnc(-c2ccc(Cl)cc2)n1-c1ccccc1` [D156], the 50% inhibitory concentration (IC50) on human CRTH2 [1] (setting [5]) is 500 to 5000 nM; at human CRTH2 [2] (setting [6]), less than 500 nM.

For `O=C(O)COc1ccc(Br)cc1-c1nc(-c2ccccc2)co1` [D96, [4-Bromo-2-(4-phenyl-oxazol-2-yl)-phenoxy]acetic acid], the IC50 on human CRTH2 [1] (setting [5]) is 500 to 5000 nM; on human CRTH2 [2] (setting [6]), less than 500 nM.

Turning to `CCc1ccc(OCC(=O)O)c(C(=O)c2cnn(-c3ccccc3Br)c2)c1` [D30, 4-Ethyl-2-[1-(2-bromophenyl)-1H-pyrazole-4-carbonyl]phenoxyacetic acid], the concentration for half-maximal inhibition (IC50) on human CRTH2 [1] (setting [5]) and at human CRTH2 [2] (setting [6]) was less than 500 nM in each case.

As for `O=C(O)COc1ccc(Br)cc1-c1nc(-c2ccc(F)cc2)no1` [D100, {4-Bromo-2-[3-(4-fluoro-phenyl)-[1,2,4]oxadiazol-5-yl]phenoxy}acetic acid], the concentration for half-maximal inhibition (IC50) on human CRTH2 [1] (setting [3]) and on human CRTH2 [2] (setting [4]) was less than 500 nM throughout.

`O=C(O)COc1ccc(Br)cc1C(=O)c1cnn(Cc2ccccc2)c1` [D56, [2-(1-Benzyl-1H-pyrazole-4-carbonyl)-4-bromophenoxy]acetic acid]: the IC50 at human CRTH2 [1] (setting [5]) and at human CRTH2 [2] (setting [6]) was less than 500 nM each time.

With `COc1ccccc1-c1noc(-c2cc(Br)ccc2OCC(=O)O)n1` [D107, {4-Bromo-2-[3-(2-methoxyphenyl)-[1,2,4]oxadiazol-5-yl]phenoxy}acetic acid], the half-maximal inhibitory concentration (IC50) on human CRTH2 [1] (setting [3]) and at human CRTH2 [2] (setting [4]) was less than 500 nM in each case.

Regarding `CCc1cc(Br)ccc1-n1cc(C(=O)c2cc(Br)ccc2OCC(=O)O)cn1` [D42, {4-Bromo-2-[1-(4-bromo-2-ethylphenyl)-1H-pyrazole-4-carbonyl]phenoxy}acetic acid], the IC50 on human CRTH2 [1] (setting [5]) and at human CRTH2 [2] (setting [6]) was less than 500 nM each time.

As for `O=C(O)COc1ccc(Br)cc1CC1SC(=O)N(CC(=O)c2ccc(Cl)cc2)C1=O` (centres unmarked) [D143, 4-Bromo-2-{3-[2-(4-chlorophenyl)-2-oxoethyl]-2,4-dioxothiazolidin-5-ylmethyl}phenoxyacetic acid], the half-inhibitory concentration (IC50) on human CRTH2 [1] (setting [5]) and on human CRTH2 [2] (setting [6]) was less than 500 nM each time.

With `O=C(O)COc1ccc(Br)cc1C(=O)c1cnn(-c2ccccc2C(F)(F)F)c1` [D23, 4-Bromo-2-[1-(2-trifluoromethylphenyl)-1H-pyrazole-4-carbonyl]phenoxyacetic acid], the IC50 on human CRTH2 [1] (setting [5]) and on human CRTH2 [2] (setting [6]) was less than 500 nM throughout.

Regarding `Cc1ccc(-n2cc(C(=O)c3cc(Br)ccc3OCC(=O)O)cn2)c(C)c1` [D54, {4-Bromo-2-[1-(2,4-dimethylphenyl)-1H-pyrazole-4-carbonyl]phenoxy}acetic acid], the half-inhibitory concentration (IC50) on human CRTH2 [1] (setting [5]) and at human CRTH2 [2] (setting [6]) was less than 500 nM in each case.

Regarding `O=C(O)COc1ccccc1C=NNC(=O)COc1ccc(Cl)cc1Cl` [D149], the half-inhibitory concentration (IC50) at human CRTH2 [1] (setting [5]) and at human CRTH2 [2] (setting [6]) was less than 500 nM in each case.

Turning to `O=C(O)COc1ccc(Br)cc1C(=O)c1cnn(-c2cc(Cl)ccc2Cl)c1` [D59, {4-Bromo-2-[1-(2,5-dichlorophenyl)-1H-pyrazole-4-carbonyl]phenoxy}acetic acid], the 50% inhibitory concentration (IC50) on human CRTH2 [1] (setting [5]) and at human CRTH2 [2] (setting [6]) was less than 500 nM in each case.

For the compound `O=C(O)COc1ccc(Br)cc1-c1noc(-c2ccc(Cl)cc2)n1` [D135, {4-Bromo-2-[5-(4-chlorophenyl)-[1,2,4]oxadiazol-3-yl]phenoxy}acetic acid], the half-inhibitory concentration (IC50) at human CRTH2 [1] (setting [5]) and at human CRTH2 [2] (setting [6]) was less than 500 nM in each case.

For `O=C(O)COc1ccc(Br)cc1-c1csc(-c2ccccc2)n1` [D93, [4-Bromo-2-(2-phenylthiazol-4-yl)phenoxy]acetic acid], the IC50 at human CRTH2 [1] (setting [5]) and at human CRTH2 [2] (setting [6]) was less than 500 nM each time.

For `COc1cccc(-c2nc(-c3cc(Br)ccc3OCC(=O)O)co2)c1` [D86, {4-Bromo-2-[2-(3-methoxyphenyl)oxazol-4-yl]phenoxy}acetic acid], the IC50 on human CRTH2 [1] (setting [5]) and at human CRTH2 [2] (setting [6]) was less than 500 nM throughout.

Consider `CCOc1ccc(-c2nc(-c3cc(Br)ccc3OCC(=O)O)co2)cc1` [D87, {4-Bromo-2-[2-(4-ethoxyphenyl)oxazol-4-yl]phenoxy}acetic acid], for which the IC50 is greater than 5000 nM at human CRTH2 [1] (setting [5]) and less than 500 nM at human CRTH2 [2] (setting [6]).

As for `O=C(O)COc1ccc(Br)cc1-c1nc(Cc2cc(F)cc(F)c2)no1` [D117, {4-Bromo-2-[3-(3,5-difluoro-benzyl)-[1,2,4]oxadiazol-5-yl]-phenoxy}-acetic acid], the IC50 at human CRTH2 [1] (setting [3]) and on human CRTH2 [2] (setting [4]) was less than 500 nM in each case.

For `Nc1ccc(OCC(=O)O)c(C(=O)c2cnn(-c3ccccc3)c2)c1` [D66, [4-Amino-2-(1-phenyl-1H-pyrazole-4-carbonyl)phenoxy]acetic acid], the IC50 at human CRTH2 [1] (setting [5]) was less than 500 nM; at human CRTH2 [2] (setting [6]), 500 to 5000 nM.

With `O=C(O)COc1c(Cl)cc(Cl)cc1C(=O)c1cnn(-c2ccccc2)c1` [D13, [2,4-Dichloro-6-(1-phenyl-1H-pyrazole-4-carbonyl)phenoxy]acetic acid], the half-inhibitory concentration (IC50) on human CRTH2 [1] (setting [5]) and at human CRTH2 [2] (setting [6]) was greater than 5000 nM each time.
